Results on 65 molecules are retold here after ChEMBL document CHEMBL4043273, “Phenotypic Optimization of Urea-Thiophene Carboxamides To Yield Potent, Well Tolerated, and Orally Active Protective Agents against Aminoglycoside-Induced Hearing Loss” (J Med Chem, 2018).

Structures are written as SMILES.

The species entered for the experiment is Danio rerio. In words: Protection against neomycin-induced hair cell death in AB zebra fish larvae assessed as increase in hair cell survival preincubated for 1 hr followed by neomycin challenge for 1 hr by DASPEI staining-based epifluorescence dissecting microscopic method. It is filed as functional.
Consider `CCN1CCc2c(sc(NC(=O)c3ccccc3)c2C(N)=O)C1`, for which the EC50 was > 25 µM.

For `CCN1CCc2c(sc(NC(=O)C3(c4ccc(Cl)cc4)CC3)c2C(N)=O)C1`, the EC50 is > 25 µM.

For `CC(C)(C)OC(=O)CCN1CCc2c(sc(NC(=O)Nc3ccc(Cl)cc3)c2C(N)=O)C1`, the EC50 worked out at 1.1 µM. Regarding `NC(=O)c1c(NC(=O)Nc2ccc(Cl)cc2)sc2c1C[C@@H]1CC[C@H]2N1`, the EC50 turned out to be 0.27 µM.

On to `CC(C)(C)OC(=O)CCCCN1CCc2c(sc(NC(=O)Nc3ccc(Cl)cc3)c2C(N)=O)C1`, for which the EC50 was 0.71 µM.

With `CC(C)[N+]1(C)CCc2c(sc(NC(=O)Nc3ccc(Cl)cc3)c2C(N)=O)C1` (stereo not given), the EC50 came out at 0.96 µM. For `C[N+]1(CC2CCC2)CCc2c(sc(NC(=O)Nc3ccc(Cl)cc3)c2C(N)=O)C1` (stereo not given), the EC50 came to 0.21 µM. The same measure for `NC(=O)c1c(NC(=O)Nc2ccc(Cl)cc2)sc2c1CCNC2`: 3.26 µM. As for `CC(C)N1CCc2c(sc(NC(=O)Nc3ccc(Cl)cc3)c2C(N)=O)C1`, the EC50 worked out at 1.49 µM. Turning to `CCN1CCc2c(sc(NC(=O)Nc3ccc4ccccc4c3)c2C(N)=O)C1`, the EC50 stood at 1.78 µM. Turning to `CCN1CCc2c(sc(NC(=O)Nc3ccc(Cl)cc3)c2C#N)C1`, the EC50 is > 25 µM. Regarding `C[N+]1(C2CCc3c(sc(NC(=O)Nc4ccc(Cl)cc4)c3C(N)=O)C2)CCC1` (stereo not given), the EC50 stood at 3.92 µM.

Turning to `CCCCc1nnc(NC(=O)Nc2ccc(Cl)cc2)s1`, the EC50 is > 25 µM. On to `NC(=O)c1c(NC(=O)Nc2ccc(Cl)cc2)sc2c1C[C@H]1CC[C@@H]2N1`, for which the EC50 turned out to be 3.92 µM. The same measure for `CN1C2CCC1c1sc(NC(=O)Nc3ccc(Cl)cc3)c(C(N)=O)c1C2` (stereo not given): 0.62 µM; for `CCN1CCc2c(sc(NC(=O)Nc3ccc(Cl)cc3)c2C(=O)N2CCOCC2)C1`: > 25 µM; for `CN1C2CCC1c1c(sc(NC(=O)Nc3ccc(Cl)cc3)c1C(N)=O)C2` (racemic): 0.36 µM. For `C[N+](C)(C)C1CCc2c(sc(NC(=O)Nc3ccc(Cl)cc3)c2C(N)=O)C1` (stereo not given) the value was 5.87 µM. For `NC(=O)c1c(NC(=O)Nc2ccc(Cl)cc2)sc2c1CC1CCC2N1` (stereo not given) the value was 0.21 µM; for `NC(=O)c1c(NC(=O)Nc2ccc(Cl)cc2)sc2c1CCN(C1CCOCC1)C2`, 2.83 µM. In the case of `CC(C)(C)C[N+]1(C)CCc2c(sc(NC(=O)Nc3ccc(Cl)cc3)c2C(N)=O)C1` (stereo not given), the EC50 turned out to be 0.29 µM. The same measure for `CCN1CCc2c(sc(NC(=O)NCc3cccc(Cl)c3)c2C(N)=O)C1`: > 25 µM; for `NC(=O)c1c(NC(=O)Nc2ccc(Cl)cc2)sc2c1CCN(CC1CCCCC1)C2`: 1.89 µM; for `CC(C)(C)OC(=O)CN1CCc2c(sc(NC(=O)Nc3ccc(Cl)cc3)c2C(N)=O)C1`: > 25 µM. For `CN1[C@@H]2CC[C@H]1c1sc(NC(=O)Nc3ccc(Cl)cc3)c(C(N)=O)c1C2` (single isomer, unassigned), the EC50 turned out to be 7.21 µM.

As for `CC(C)(C)OC(=O)CCCN1CCc2c(sc(NC(=O)Nc3ccc(Cl)cc3)c2C(N)=O)C1`, the 50% effective concentration (EC50) turned out to be 0.56 µM. On to `CCN1CCc2c(sc(NC(=O)Nc3ccc(Cl)cc3)c2C(=O)NCCO)C1`, for which the EC50 is 9.4 µM.

In the case of `CCN1CCc2c(sc(NC(=O)Nc3cscc3C(=O)OC)c2C(N)=O)C1`, the EC50 is > 25 µM. `CCN1CCc2c(sc(NC(=O)Nc3cccc(Cl)c3Cl)c2C(N)=O)C1`: the EC50 turned out to be 17.4 µM. For the molecule `CN1[C@H]2CC[C@@H]1c1c(sc(NC(=O)Nc3ccc(Cl)cc3)c1C(N)=O)C2`, the EC50 is > 2.25 µM. Consider `NC(=O)c1c(NC(=O)Nc2ccc(Cl)cc2)sc2c1CCN(CC1CC1)C2`, for which the EC50 was 1.22 µM.

Regarding `NC(=O)c1c(NC(=O)Nc2ccc(Cl)cc2)sc2c1CCN(CC1CCC1)C2`, the EC50 is 1.36 µM. For `CCN1CCc2c(sc(NC(=O)Nc3ccc(Cl)cc3)c2C(=O)NC)C1`, the EC50 was > 25 µM. In the case of `C[N+]1(CC2CCCCC2)CCc2c(sc(NC(=O)Nc3ccc(Cl)cc3)c2C(N)=O)C1` (stereo not given), the EC50 came out at 0.1 µM. Turning to `CCN1CCc2c(sc(NC(=S)Nc3ccc(Cl)cc3)c2C(N)=O)C1`, the EC50 turned out to be 6.57 µM. The same measure for `CCN1CCc2c(sc(NC(=O)NCC3CCCO3)c2C(N)=O)C1` (stereo not given): > 25 µM; for `CC[N+]1(CC)CCc2c(sc(NC(=O)Nc3ccc(Cl)cc3)c2C(N)=O)C1`: 0.45 µM. The same measure for `CCN1CCCc2c(sc(NC(=O)Nc3ccc(Cl)cc3)c2C(N)=O)C1`: 3.98 µM; for `CCN1CCc2c(sc(NC(=O)CN3CCCCC3)c2C(N)=O)C1`: > 25 µM. For `COCCCN1CCc2c(sc(NC(=O)Nc3ccc(Cl)cc3)c2C(N)=O)C1` the value was 2.4 µM. For `CC(C)CN1CCc2c(sc(NC(=O)Nc3ccc(Cl)cc3)c2C(N)=O)C1`, the EC50 was 4.51 µM. The same measure for `NC(=O)c1c(NC(=O)Nc2ccc(Cl)cc2)sc2c1[C@@H]1CC[C@H](C2)N1`: 0.03 µM. The same measure for `CC1CCc2nc(NC(=O)Nc3ccc(Cl)cc3)sc2C1` (stereo not given): > 25 µM; for `CCN1CCc2c(sc(NC(=O)Nc3ccc(Cl)cc3)c2C(=O)c2nc(C)no2)C1`: > 25 µM. The same measure for `CCC1CCc2c(sc(NC(=O)Nc3ccc(Cl)cc3)c2C(N)=O)C1` (stereo not given): > 25 µM; for `NC(=O)c1c(NC(=O)Nc2ccc(Cl)cc2)sc2c1[C@H]1CC[C@@H](C2)N1`: 5 µM.

As for `CCN1CCc2c(sc(N)c2C(N)=O)C1`, the EC50 is > 25 µM. For `CC(C)(C)OC(=O)CCC[N+]1(C)CCc2c(sc(NC(=O)Nc3ccc(Cl)cc3)c2C(N)=O)C1` (stereo not given), the EC50 was determined as 0.25 µM. For `CC(C)(C)OC(=O)CCCC[N+]1(C)CCc2c(sc(NC(=O)Nc3ccc(Cl)cc3)c2C(N)=O)C1` (stereo not given) the value was 0.14 µM.

For `NC(=O)c1c(NC(=O)Nc2ccc(Cl)cc2)sc2c1CCN(CCCNC(=O)CCc1cccc3ccccc13)C2`, the EC50 amounted to 0.11 µM. For `CCN1CCc2c(sc(NC(=O)Nc3ccc(-c4ccccc4)cc3)c2C(N)=O)C1` the value was 3.39 µM.

`CCC(O)c1cc2c(cc1NC(=O)Nc1ccc(Cl)cc1)OCCO2` (stereo not given): the EC50 is > 25 µM.

On to `CCN1CCc2c(sc(NC(=O)Nc3ccc(Cl)cc3)c2C(=O)NCCN2CCOCC2)C1`, for which the EC50 is 9.38 µM. For `CCN1CCc2c(sc(NC(=O)C3(C(=O)Nc4ccc(Cl)cc4)CC3)c2C(N)=O)C1`, the EC50 is > 25 µM. `CCN1CCc2c(sc(NC(=O)Nc3ccc(I)cc3)c2C(N)=O)C1`: the EC50 was determined as 1.62 µM. The same measure for `NC(=O)c1c(NC(=O)Nc2ccc(Cl)cc2)sc2c1C1CCC(C2)N1` (racemic): 0.11 µM.

For `CC(C)C[N+]1(C)CCc2c(sc(NC(=O)Nc3ccc(Cl)cc3)c2C(N)=O)C1` (stereo not given), the EC50 came to 0.38 µM. Turning to `CCN1CCc2c(sc(NC(=O)Nc3ccc(Cl)cc3)c2C(=O)O)C1`, the concentration for a half-maximal effect (EC50) was > 25 µM.

On to `CC(C)(C)OC(=O)CCCCCN1CCc2c(sc(NC(=O)Nc3ccc(Cl)cc3)c2C(N)=O)C1`, for which the EC50 was determined as 0.62 µM. In the case of `CCN1CCc2c(ccc(NC(=O)Nc3ccc(Cl)cc3)c2C(N)=O)C1`, the EC50 is > 25 µM.

On to `CCN1CCc2c(sc(NC=O)c2C(N)=O)C1`, for which the EC50 is > 25 µM.

As to `CN1CCc2c(sc(NC(=O)Nc3ccc(Cl)cc3)c2C(N)=O)C1`, the EC50 amounted to 4.7 µM. For `Cc1c(CN2CCOCC2)sc(NC(=O)Nc2ccc(Cl)cc2)c1C(N)=O` the value was 6.92 µM; for `CCN1CCc2c(sc(NC(=O)Nc3ccc(Cl)cc3)c2C(=O)NC2COC2)C1`, > 25 µM.

In the case of `CCN1CCc2c(sc(NC(=O)Nc3ccc(Cl)cc3)c2C(=O)c2nnco2)C1`, the EC50 is > 25 µM.
